Laboratory results from patent US10183015B2, “Heterocyclic compounds and methods of use” (Medivation Technologies LLC, priority 2015, dated 2019).
“And” between values parts separate entries of the source, which are not always exact repeats. Equal values may be shown once.

Columns and labels:
Format in all cases: in vivo
[1] = test system: SCAP; experiment: Short-term Paigen-diet NASH mouse model: hepatic SCAP gene expression (RT-qPCR); conditions: liver, 21 days; for DDct: SCAP Dct relative to vehicle mean; for Dct: SCAP minus 18S; for 2DDct: SCAP relative expression to vehicle group, normalized to 18S; for SCAP: raw RT-qPCR value
Description: To investigate whether Compound #37 prevents the development of pathology associated with NASH and steatosis in an acute exploratory disease model, a study was conducted using a diet-induced acute liver steatosis model in mice. As described below, in this study, C57BL/6J mice were initiated on the Paigen diet and simultaneously treated with Compound #37 (5, 20, and 40 mg/kg/day) or vehicle control (20% HPβCD 10 mL/kg/day) by oral gavage for 21 days.
After acclimation, 8-week old male C57Bl/6J mice (Charles River) weighing about 25 g were randomized in 4 groups according their body weight and treated once daily around noon by oral gavage with vehicle, or Compound #37 at various for 21 days as follows: Group 1: vehicle-20% (2-hydroxypropyl)-β-cyclodextrin (HP-β-CD) (n=10); Group 2: Compound #37, 5 mg/kg (n=10) Group 3: Compound #37, 20 mg/kg (n=10) Group 4: Compound #37, 40 mg/kg (n=10). During the treatment period, body weight and food intake (measured over 24h) were measured 3 times per week and once a week, respectively. During the acclimation, all mice were fed a standard diet (Special Diets Services RM1 (E), product no. 801492) and tap water ad libitum. After the acclimation period, mice were fed until the end of the experiment with a 60% high fat Paigen diet (60 kcal % fat, 1.25% cholesterol, and 0.5% cholate; D11061901, Research Diet) and tap water ad libitum.
Gene expression analysis. Hepatic expression levels of genes involved in lipid metabolism (FAS, SREBP1, ACC1, SCD1), cholesterol metabolism (HMG-CoAR, LDLR), SREBP proteolysis (SCAP, INSIG1), ER stress (PERK), oxidative stress (NRF2), inflammation (MCP-1), and fibrosis (collagen 1α1) were quantified by RTqPCR. Expression level was normalized to 18S gene expression and relative expression to vehicle group was calculated with the […] method.

[2] = Short-term Paigen-diet NASH mouse model: body weight, food intake, mortality
Excerpt: Results. […] Mice were maintained on specific diet and were sacrificed after 9 days of diet.

[3] = DIN mouse model: body weight, food and water intake, mortality
Description: Male C57Bl/6J mice (8 weeks old) were housed in enriched ventilated cages (31×12.5×12.7 cm) throughout the experimental phase. Animals' cages litters were changed at least once a week. Animal were housed 5 per cage on inverted 12-hour light cycle (at 09:00 am lights off), 22±2° C. and 55±10% relative humidity. The acclimation period was 20 days. During the acclimation period, all mice were fed a standard diet (RM1 (E) 801492, SDS) and tap water ad libitum. After the acclimation period, mice were fed with the DIN diet (60% fat, cholesterol enriched) and fructose-enriched tap water ad libitum until the end of the experiment.
At 6 weeks of diet, mice were 4-hour fasted (09:00 am to 1:00 pm) and blood (150 μl/EDTA) was collected at 01:00 pm by retro-orbital bleeding under isoflurane anesthesia. Mice were then allocated in 2 homogenous groups (n=12/group) according to their plasma levels of ALT (average levels: 685U/L), AST (average levels: 627U/L) and HOMA-IR index (average value: 4.7), into 2 homogenous groups (see values at day 0 in Tables 15A and 15B ALT/AST and Tables 16A and 16B for HOMA-IR). Mice were then treated once daily by oral gavage with vehicle (Group 1) or Compound #37 at 20 mg/kg (Group 2) for 70 days.
Results. […] Water intake tended to be higher in mice treated with, resulting in a 17% increase in cumulative water intake (p<0.05 vs. vehicle). […]

[4] = Short-term Paigen-diet NASH mouse model: Compound #37 plasma concentration 1 hour after final dose; conditions: for concentration at 1 h: male, C57Bl/6J, mouse, plasma, oral
Excerpt: After 21 days of treatment, mice were 4-hour fasted (9 am to 1 pm). One hour after the last dosing (noon), blood was collected by retro-orbital bleeding (maximal volume on EDTA) under isoflurane anesthesia to measure plasma triglycerides, total cholesterol, non-esterified fatty acid, ALT and AST. Mice were then sacrificed by cervical dislocation, and livers were harvested and weighed. Liver samples from the same lobe were dissected, frozen, and analyzed as described below.
The Paigen diet in the C57Bl/6J mouse strain typically results in an initial acute weight loss that recovers over time (Hebbard & George, 2011; vendor historical unpublished data). […] Dosing of this group was stopped on day 4 and the surviving mice were sacrificed on day 9, 1 hour after a final dose to analyze drug exposure. […] No mice died in the Compound #37 5 mg/kg/day or vehicle control groups (10 mice each group).
The death of animals in the Compound #37 40 mg/kg/day and 20 mg/kg/day groups appears to be related to synergistic weight loss due to a combination of the Paigen diet and the inappetence effects of Compound #37 observed in repeat-dose toxicity studies in rats and dogs. […] Compound #37 mean plasma concentration 1 hour after final dose administration on day 21 was 20.4 μM (±4.33 μM) and 112 μM (±26.0 μM) for the 5 mg/kg and 20 mg/kg groups, respectively. The Compound #37 mean plasma concentration 1 hour after final dose administration for the 4 animals on day 9 in the 40 mg/kg group was 136 μM (±37.1 μM). These exposures at 1 hour after dosing are approximately 2-fold higher than those observed in healthy mice and may be related to altered Compound #37 metabolism in this acute liver injury model.

[5] = Compound #37 5 mg/kg, group mean, n=10
[6] = Compound #37 5 mg/kg, individual animals, 5 mg/kg
[7] = Compound #37 20 mg/kg, group mean, n=6
[8] = Compound #37 20 mg/kg, individual animals, 20 mg/kg

CC(C)Cc1cc(-c2nc(-c3ccc(NS(=O)(=O)C(F)(F)F)cc3Cl)cs2)ccn1 [Compound 37, N-(3-chloro-4-(2-(2-isobutylpyridin-4-yl)thiazol-4-yl)phenyl)-1,1,1-trifluoromethanesulfonamide]
DDct [1, 5]: 0.19 | DDct [1, 6]: −0.7 and 0.72 and −0.1 and −0.18 and 1.21 and 0.7 and 0.27 and −0.21 and −0.02 and 0.17 | DDct [1, 7]: 0.07 | DDct [1, 8]: 0.6 and 0.83 and 0.33 and −1.29 and 0.9 and −0.94 | Dct [1, 5]: 12.8 | Dct [1, 6]: 11.96 and 13.38 and 12.56 and 12.48 and 13.87 and 13.36 and 12.93 and 12.45 and 12.64 and 12.83 | Dct [1, 7]: 12.7 | Dct [1, 8]: 13.26 and 13.49 and 12.99 and 11.37 and 13.56 and 11.72 | 2DDct [1, 5]: 0.94 | 2DDct [1, 6]: 1.62 and 0.61 and 1.07 and 1.13 and 0.43 and 0.62 and 0.83 and 1.16 and 1.01 and 0.89 | 2DDct [1, 7]: 1.15 | 2DDct [1, 8]: 0.66 and 0.56 and 0.79 and 2.44 and 0.54 and 1.92 | SCAP [1, 5]: 25.1 | SCAP [1, 6]: 25.42 and 26.49 and 24.17 and 25.83 and 25.9 and 26.71 and 24.53 and 24.24 and 23.78 and 23.95 | SCAP [1, 7]: 24.9 | SCAP [1, 8]: 26.17 and 25.78 and 25.19 and 24.4 and 25.05 and 22.98 | differences in weight vs vehicle control at end of 3-week dosing period ([2]; 5 mg/kg/day and 20 mg/kg/day, surviving animals): no differences in weight | mice died ([2]; 20 mg/kg/day, group of 10 mice (1 on day 7, 2 on day 9, 1 on day 11)): 4 mice | death of additional mice by day 9 ([2]; 40 mg/kg/day, group of 10 mice): 3 mice | death of mice by day 7 ([2]; 40 mg/kg/day, group of 10 mice): 3 mice | mean weight loss ([2]; 40 mg/kg/day, over 4 days of treatment): > 20% | mice died ([2]; mouse, in vivo): No mice died | body weight and body weight gain ([3]; 20 mg/kg p.o. daily, 70 days): non-significant trend towards lower | tolerability ([3]; 20 mg/kg/day, 10 weeks): generally well tolerated | exposure at 1 hour after dosing relative to healthy mice ([4]; acute liver injury model vs healthy mice): approximately 2 fold | concentration at 1 h ([4]; 5 mg/kg, day 21): 20.4 µM | concentration at 1 h ([4]; 20 mg/kg, day 21): 112 µM | concentration at 1 h ([4]; 40 mg/kg, day 9, 4 animals): 136 µM
